Series [1] deals with phospho-carboxyl terminal domain (Ser2) in HCT116 cells. The series can be described thus: p-CTD (S2) cell based Acumen assay. Particulars: Homo sapiens, HCT-116, 4 hours, read-out: relative IC50 for phosphoCTD (S2). As for the experimental part: HCT116 cells (ATCC CCL-247) are cultured in McCoy's 5A Medium Modified media supplemented with 10% FBS, 1% NaPyr and 1% Pen/Strep and plated (prior to becoming 70% confluent) in 96-well flat-bottom plates at a density of 5,000 cells per well in 100 μL volume. The cells are then incubated overnight in a cell culture incubator (5% CO2, 95% Relative Humidity (RH) and 37° C.) and allowed to attach to the plate. The following morning the cells are dosed with compounds. Compound inhibitors are first solubilized at 60 μM in culture medium containing 0.6% DMSO. Subsequently compound serial dilutions (1:3) are prepared over a […] to […] range. […]
The following day cells are washed three times with PBS (100 μL/well) and incubated with 50 μL/well of secondary antibody (1:2000 dilution, Goat anti-rabbit IgM ALEXA FLUOR™ 488) in PBS for 1 hour at RT. […] Plates are analyzed on Acumen on FL2 (mean intensity), and FL3 (total intensity). Fluorescence plates are scanned with ACUMEN EXPLORER™ [Laser-scanning fluorescence microplate cytometer manufactured by TTP LABTECH LTD] to measure anti-phospho-carboxyl terminal domain at Serine 2 (pCTD). […]
The IC50 is determined by curve fitting to a four parameter logistic for each output using GENE DATA™.

The subject of the next series is OCUM1. The series can be described thus: Biomarker study proliferation (CellTiter-Glo). Format: cell-based. Put shortly: (§1)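 Seven days' exposure to a 10-point threefold dilution series precedes the CellTiter-Glo luminescence read. Plating uses 5000 cells/well in supplier-recommended medium, and 5 μM staurosporine defines maximal inhibition.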
The next series relates to M14. In words: Biomarker study proliferation (CellTiter-Glo). Format: cell-based. An outline of the steps: as §1
The next series concerns HEC108. In words: Biomarker study proliferation (CellTiter-Glo). Format: cell-based. Put shortly:
as §1

For a further series, the system named is CCRFCEM. In words: Biomarker study proliferation (CellTiter-Glo). Format: cell-based. An outline of the steps:
as §1

In a further series the test system is EBC1. In words: Biomarker study proliferation (CellTiter-Glo). The format is cell-based. Put shortly: as §1
Background: In ATP-based viability assays light output follows the ATP content of the culture.

Series [2] relates to RB1 mutants cancer cell lines. In words: Biomarker study: distribution of anti-proliferation effects. Format: cell-based. As for the experimental part: (§2) Cancer cell lines are profiled to evaluate the anti-proliferative activity of a test compound in-vitro. Mutation, copy number and gene expression information of ARID1A, KMT2C, KMT2D and/or RB1 genes across cancer cell lines is obtained from COSMIC database (cancer.sanger.ac.uk) and cBioportal (http://www.cbioportal.org/). Cells are cultured in growth medium and plated into a 96-well plate in 100 μL/well growth medium at 5000 cells/well then incubated at 37° C., 5% CO2 overnight. Cells are cultured using supplier recommended media and conditions well known in the art, for example with RPMI 1640 with or without HEPES & L-Glutamine (Thermo SH30255.01) and 1 mM Sodium Pyruvate, and 10% FBS(Gibco cat #10082). The 1000× intermediate dilution plate is prepared by making a 10 mM working solution of a test sample in DMSO and performing 1:3 dilutions in DMSO for 10 points. The 10× dosing plate is prepared by adding 2 μL from the 1000× intermediate dilution plate to 198 μL of OPTIMEM®+10% FBS and mixing well. The cell plate is then treated by adding 11 μL from the 10× dosing plate into the 100 μL/well cell plate for a 1× final concentration. Staurosporine is used as a maximum growth inhibition control at a final concentration of 5 μM. The cell plate is incubated for 7 days at 37° C., 5% CO2. Seven days after treatment, Cell Titer-Glo® (Promega cat #G7571) assay buffer and substrate are removed from −20° C. and allowed to equilibrate to RT. Assay buffer is added to the substrate and swirled gently to mix. The CELL TITER-GLO® reagent (100 μL/well) is added to the cell plate and incubated at RT for 15 minutes. After 15 minutes, luminescence is read using a plate reader. Data is analyzed in Excel and graphed in GraphPad Prism. Statistical analysis and p value is calculated using Mann-Whitney nonparameteric t tests using GraphPad Prism.
(§3) Anti-proliferative effects of a test compound are categorized as insensitive (IC50≥1 μM), cytostatic (IC50<1 μM and % inhibition <70%) or cytotoxic (IC50<1 μM and % inhibition ≥70%).

The subject of series [3] is KMT2C mutants cancer cell lines. The description is as above. Format: cell-based. As for the experimental part:
as §2, §3

Series [4] concerns ARID1A mutants cancer cell lines. Described as above. Format: cell-based. As to the method:
as §2, §3

Series [5] concerns KMT2D mutants cancer cell lines. Described as above. Format: cell-based. As for the experimental part:
as §2, §3

Series [6] relates to Others (cancer cell lines). The series is described as above. Format: cell-based. As to the method:
as §2, §3

Results on one molecule are retold here after patent publication US20210032257A1, “(E)-1-(4-(DIMETHYLAMINO)BUT-2-ENOYL)PYRROLIDIN-3-YL 4-((3-ISOPROPYL-5-METHYLPYRAZOLO[1,5-A]PYRIMIDIN-7-YL)AMINO)PIPERIDINE-1-CARBOXYLATE FOR INHIBITING CDK7” (Eli Lilly and Company, priority 2017, published 2021).

Some results are limits rather than exact numbers.

Regarding `Cc1cc(NC2CCN(C(=O)O[C@H]3CCN(C(=O)/C=C/CN(C)C)C3)CC2)n2ncc(C(C)C)c2n1` [Example 1, [(3S)-1-[(E)-4-(dimethylamino)but-2-enoyl]pyrrolidin-3-yl] 4-[(3-isopropyl-5-methyl-pyrazolo[1,5-a]pyrimidin-7-yl)amino]piperidine-1-carboxylate], the IC50 in series [1] was more than 2 µM; in the series on OCUM1 (OCUM1, 168 h, read-out: Anti-proliferation effect IC50), 0.027 µM; in the series on M14 (Homo sapiens, M14, 168 h, read-out: Anti-proliferation effect IC50), 0.032 µM; in the series on HEC108 (168 h, read-out: Anti-proliferation effect IC50), 0.031 µM; with CCRFCEM (Homo sapiens, CCRF-CEM, 168 h, read-out: Anti-proliferation effect IC50) it was 0.04 µM; with EBC1 (Homo sapiens, EBC-1, 168 h, read-out: Anti-proliferation effect IC50) it was 0.047 µM. Moreover, the “Anti-proliferation effect % Inh.” value in the series on OCUM1 (OCUM1, STOMACH, 7 days) worked out at 82%; in the series on M14 (M14, SKIN, 7 days), 85%; with HEC108 (HEC108, ENDOMETRIUM, 7 days), 90%; in the series with CCRFCEM (CCRFCEM, BLOOD, 7 days), 96%; in the series with EBC1 (EBC1, LUNG, 7 days) it was 83%. Further, the “Anti-proliferation effect Outcome” value in the series on OCUM1 (OCUM1, STOMACH, 7 days) is “Cytotoxic (cytotoxic (IC50<1 μM and % inhibition ≥70%))”; with M14 (M14, SKIN, 7 days) it was “Cytotoxic (cytotoxic (IC50<1 μM and % inhibition ≥70%))”; with HEC108 (HEC108, ENDOMETRIUM, 7 days), “Cytotoxic (cytotoxic (IC50<1 μM and % inhibition ≥70%))”; in the series on CCRFCEM (CCRFCEM, BLOOD, 7 days) it was “Cytotoxic (cytotoxic (IC50<1 μM and % inhibition ≥70%))”; in the series with EBC1 (EBC1, LUNG, 7 days) it was “Cytotoxic (cytotoxic (IC50<1 μM and % inhibition ≥70%))”. For the same molecule, the “Distribution (%) of anti-proliferation effects: Cytotoxic (IC50 <1 μM, % Inh. ≥70)” value is 54%, n = 22 in [2]; 70%, n = 7 in series [3]; 64%, n = 25 in [4]; 76%, n = 19 in [5]; 40%, n = 41 in series [6].
